Data on seven molecules can be found in US9180114B2, “Neurodegenerative diseases and methods of modeling” (PRESIDENT AND FELLOWS OF HARVARD COLLEGE, priority 2008, dated 2015).

The subject of one assay is mice. Particulars: cited from earlier work; for induction of (cutaneous) vasodilation: agonist alone.
In assay [1] the test system is Hb9::GFP human ES cell-derived motor neurons on SOD1G93A glia. Put plainly: Survival of human ES cell-derived motor neurons co-cultured with SOD1G93A glia treated with prostaglandin D2 receptor antagonists. It is filed as cell-based. To be noted: for Hb9::GFP cells remaining (cell death / survival of motor neurons) on SOD1G93A glia: 10 days of treatment.
The subject of assay [2] is Hb9::GFP human ES cell-derived motor neurons. Put plainly: Survival of Hb9::GFP human ES cell-derived motor neurons co-cultured with non-transgenic (WT) glia treated with candidate factors. It counts as cell-based. To be noted: 20 days of treatment. How it is done: After 24 hours, the cells had aggregated to form embryoid bodies (EBs), and the media was changed to remove debris by centrifuging the EBs and resuspending in fresh in human ES cell media without bFGF2 or plasmanate in low attachment 6-well plates. EBs were cultured as such for 13 more days, with half of the media changed every two days, and a complete media change every week. After 14 days, the EBs were induced toward a caudal and ventral identity using retinoic acid (1 μM, Sigma) and an agonist of the Shh signaling pathway (1 μM) in N2 media: 1:1 DMEM:F-12+Glutamate (Gibco), 10,000 units Penicillin and 1 mg/mL Streptomicin (Gibco), 1% N2 Supplement (Gibco), 0.2 mM ascorbic acid (Sigma-Aldrich), 0.16% D-(+)-Glucose (Sigma-Aldrich), BDNF (10 ng/ml, R&D Systems), for another 14 days. The EBs were then matured for a final 14 days in N2 media with GNDF (10 ng/mL, R&D Systems). After 42 days of differentiation, the EBs were dissociated. To dissociate the EBs, they were centrifuged at 1000 rpm for 5 min in a 15 ml falcon tube, and then washed once with PBS to eliminate residual media. The EBs were then incubated for 60 minutes at 37° C. in Earle's Balanced Salt Solution with 20 units of papain and 1000 units of Deoxyribonuclease I (Worthington Biochemical Corporation). EBs were triturated using a 2 mL serological pipette every 15-20 minutes during this incubation. When an almost single cell suspension was achieved, the cells were centrifuged for 5 minutes at 1000 RPM. […] These cells were then counted and plated on Poly-D-Lysine/Laminin CultureSlides (BD biosciences) or on a layer of primary glial cells. Depending on the experiment, motor neurons or interneurons were counted 10 or 20 days after plating.
Non-transgenic glia were individually pretreated for 1 day with either one of the three cytokines MCP2, Cxcl7, or Rantes; with GMFb; an agonist of SHH pathway; or with PGD2. […] Replicate cultures were individually maintained for 20 days in the presence of each of the 6 factors, fixed, and the numbers of GFP positive motor neurons quantified. […]

Consider `O=C(O)CCCCCCC1C(=O)NC(=O)N1CCC(O)C1CCCCC1` (stereo not shown) [BW245C], for which the “induction of (cutaneous) vasodilation” value in the assay on mice was “induced vasodilation”.
For the molecule `O=C(O)CCCCCCC1C(=O)N(Cc2ccccc2)C(=O)N1NCC(O)C1CCCCC1` (stereo not shown) [BWA868C], the “Hb9::GFP cells remaining (cell death / survival of motor neurons) on SOD1G93A glia” value in assay [1] was “significantly reduced cell death”; in assay [1] (listed as BW868C) it was “significantly reduced neuronal cell death”.
`CCCCCC(=O)CCC1C(=O)CC(O)C1C/C=C\CCCC(=O)O` (stereo not shown) [DK-PGD2, 13,14-dihydro-15-keto-PGD2]: the “induction of (cutaneous) vasodilation” value with mice was “did not induce cutaneous vasodilation”.
On to `CS(=O)(=O)c1cc(F)cc2c3c(n(Cc4ccc(Cl)cc4)c12)[C@@H](CC(=O)O)CC3` [MK 0524], for which the “blockade of PGD2- and NA-induced vasodilation” value with mice (PGD2 or nicotinic acid (NA) challenge) is “blocked both PGD2- and NA-induced vasodilation”. In assay [1], the “increase in the number of GFP positive neurons relative to untreated neurons plated on the same glia” value came out at 32% and the “neuronal cell death for motor neurons cultured on SOD1G93A glia” value is “significantly reduced neuronal cell death”.
With `CCCCC[C@H](O)/C=C/[C@H]1C(=O)C[C@H](O)[C@@H]1C/C=C\CCCC(=O)O` [PGD2, prostaglandin D2], in assay [2] (WT glia pretreated 1 day, 10 μM), the “number of motor neurons compared to the control condition” value is 19%+/−2%.

B1: GMFb: glial maturation factor beta, induces a pro-inflammatory state in astrocytes (protein, UniProt Q9CQI3 2-142, looked up)
Glia maturation factor beta: SESLVVCDVAEDLVEKLRKFRFRKETHNAAIIMKIDKDERLVVLDEELEGVSPDELKDELPERQPRFIVYSYKYQHDDGRVSYPLCFIFSSPVGCKPEQQMMYAGSKNKLVQTAELTKVFEIRNTEDLTEEWLREKLGFFH
In the case of B1, the “number of human ES cell derived motor neurons compared to the control condition” value in assay [2] (non-transgenic (WT) glia pretreated 1 day, 250 ng/ml) stood at 95%+/−9%.

B2: Mcp2: cytokine over expressed in mutant glia (protein, UniProt Q9Z121 24-97, looked up)
C-C motif chemokine 8: GPDKAPVTCCFHVLKLKIPLRVLKSYERINNIQCPMEAVVFQTKQGMSLCVDPTQKWVSEYMEILDQKSQILQP
For the molecule B2, in assay [2] (non-transgenic (WT) glia pretreated 1 day, 100 ng/ml), the “number of GFP positive motor neurons compared to the control condition” value worked out at 103%+/−8%.
